“Also recorded” adds a separate entry of the source.
Tests used:
Type in all cases: in vivo
[1] = Pharmacokinetics in mice, serum LC/MS; conditions: for oral bioavailability / bioavailability: 5 mg/kg (A1, A260) or 10 mg/kg (A270), mice; for bioavailability: mouse, serum, po, n=3, read-out: oral bioavailability (mean±SEM)
Protocol: Pharmacokinetics of the Compound A1(DRAinh-A250) and analogs (DRAinh-A260 and DRAinh-A270) was determined in mice. After single dose intraperitoneal or oral administration (5 mg/kg for Compound A1 and DRAinh-A260, 10 mg/kg for DRAinh-A270), blood samples were collected via retro-orbital puncture at different time points and serum was separated by centrifugation. Compound concentrations were measured in serum using LC/MS. FIGS. 10A, 10B, 10C show the respective serum concentration of Compound A1 (FIG. 10A), DRAinh-A260 (FIG. 10B) and DRAinh-A270 (FIG. 10C) after single oral or intraperitoneal administration at zero time (n=3 mice per compound per administration route). Compound A1 had predicted therapeutic levels for at least 24 hours after single dose oral or intraperitoneal administration. […] (mean±SEM): 53.9±6.5% for Compound A1, 16.4±6.6% for DRAinh-A260, and 39.3±3.5% for DRAinh-A270.

[2] = test system: loperamide-treated wild-type mice; assay: Loperamide-induced constipation model in wild-type mice
Protocol: Female CD1 mice (age 8-10 weeks) were administered loperamide (0.3 mg/kg, intraperitoneally, Sigma-Aldrich) to produce constipation. Compound A1 (DRAinh-A250) (5 mg/kg, in saline containing vehicle (5% DMSO and 10% Kolliphor HS 15; Sigma-Aldrich)), tenapanor (5 mg/kg, in vehicle), both compounds (5 mg/kg each, in vehicle), or vehicle alone were administered by oral gavage 1 hour before loperamide. After loperamide injection, mice were placed individually in metabolic cages with ad libitum access to food and water. Stool samples were collected for 3 h, and total stool weight and number of fecal pellets were quantified. To measure stool water content, stool samples were dried at 80° C. for 24 h and water content was calculated as [wet weight-dry weight]/wet weight. Similar studies were done in cystic fibrosis (CF) mice (ΔF508 homozygous) lacking functional CFTR.
Constipation Model in MiceDRAinh-A260 and DRAinh-A270 were tested in a loperamide-induced constipation model in mice. Female CD1 mice (age 8-10 weeks) were administered loperamide (0.3 mg/kg, intraperitoneally, in 5% ethanol in PBS, 0.1 mg/mL final concentration) to produce constipation and vehicle in control mice. DRAinh-A260 (5 mg/kg, in saline with 5% DMSO and 10% Kolliphor HS 15) or DRAinh-A270 (1, 3 or 10 mg/kg, in PBS with 5% DMSO and 20% (2- hydroxypropyl)-β-cyclodextrin) or vehicle alone were administered by oral gavage 1 hour before loperamide (FIG. 11A). After loperamide injection, mice were placed individually in metabolic cages with free access to food and water. Stool samples were collected for 3 hours, and total stool weight and number of fecal pellets were quantified. To measure stool water content, stool samples were dried at 80° C. for 24 hours and water content was calculated as [wet weight-dry weight]/wet weight.

[3] = test system: oxalate nephropathy model in mice; assay: Oxalate nephropathy model induced by high oxalate diet
Protocol: To induce oxalate nephropathy, mice were fed with high oxalate (0.67%) and low calcium (<0.01%) diet as described (Am J Physiol Renal Physiol 310: F785-F795, 2016). […] Mice were started high oxalate diet at Day 0 and treated with Compound A1 (5 mg/kg) or vehicle by oral gavage twice daily starting at Day 0. At Day 14, urine was collected for 24 hours in metabolic cages and centrifuged to examine urine sediment, then mice were euthanized and kidneys were used for histological analysis.
The kidneys harvested at Day 14 were examined for kidney damage using H & E staining, and for crystal deposition using polarized light microscopy.
Similar experiments in oxalate nephropathy model were performed using DRAinh-A270. For these experiments mice had 3-hour urine collections at Day 0, 7 and 14. High oxalate diet was started on Day 0 after initial urine collection and mice were given DRAinh-A270 or vehicle intraperitoneally twice daily for 14 days.

[4] = test system: acute hyperoxaluria in mice; assay: Acute hyperoxaluria induced by oral sodium oxalate
Protocol: The efficacy of Compound A1 (DRAinh-A250) and DRAinh-A270 were tested in models of acute hyperoxaluria and oxalate nephropathy in mice. To induce acute hyperoxaluria, mice were given sodium oxalate ([…]) with or without 5 mg/kg Compound A1 by oral gavage at zero time and urine was collected for the next 4 hours in metabolic cages. A group of mice were used as controls and treated with vehicle only (no sodium oxalate or DRA inhibitor) and their urine was collected for 4 hours in metabolic cages as well. Using the 4 hour urine samples, urine oxalate/creatinine ratio was determined to quantify urinary oxalate excretion.
Similar experiments were performed for DRAinh-A270 in the acute hyperoxaluria model. For these experiments mice were first placed in metabolic cages to collect urine for 4 hours without any treatment. After this initial collection, the mice were treated with DRAinh-A270 (10 mg/kg) or vehicle intraperitoneally, and given sodium oxalate ([…], in water) by oral gavage at zero time. Urine was collected for the next 4 hours in metabolic cages.

[5] = 5 mg/kg oral twice daily, Day 14

| Compound | oral bioavailability [1] [%] | time with predicted therapeutic serum levels ([1]; 5 mg/kg single dose oral or intraperitoneal) | bioavailability [1] [%] | three-hour stool weight, number of pellets and stool water content ([2]; 5 mg/kg oral gavage 1 hour before loperamide, wild-type mice) | insoluble urine sediment [3, 5] | kidney damage, H & E staining [3, 5] | renal crystal deposition, polarized light microscopy [3, 5] | 4 hour urine oxalate/creatinine ratio (hyperoxaluria) ([4]; 5 mg/kg oral gavage with sodium oxalate 1 µmol/kg) | time with predicted therapeutic serum concentrations ([1]; 10 mg/kg single dose oral or intraperitoneal) | stool parameters / diarrhea in control mice ([2]; 10 mg/kg oral, mice not treated with loperamide) | stool weight, pellet number and water content, dose-dependence ([2]; 1, 3 or 10 mg/kg oral gavage 1 hour before loperamide) | development of renal failure ([3]; intraperitoneally twice daily for 14 days) | body weight change compared to Day 0 ([3]; intraperitoneally twice daily for 14 days, Day 7 and Day 14) | 3-hour urine oxalate / creatinine ratio ([3]; intraperitoneally twice daily, Day 7 vs Day 0) | serum creatinine ([3]; intraperitoneally twice daily, Day 14) | 4-hour urine oxalate/creatinine ratio (hyperoxaluria) ([4]; 10 mg/kg intraperitoneally, sodium oxalate 2.5 µmol/kg oral) |
| --- | --- | --- | --- | --- | --- | --- | --- | --- | --- | --- | --- | --- | --- | --- | --- | --- |
| Cc1c(CC(=O)O)c(=O)oc2c(C)c(OCc3cccc(Br)c3)ccc12 [Compound A1] | 54 | at least 24 hours | 53.9 ± 6.5 | partially prevented; also recorded: comparably reduced signs of constipation; also recorded: reduces loperamide-induced constipation | greatly reduced; also recorded: greatly reduces urine sediment | prevention of kidney damage; also recorded: prevents renal damage | prevention of crystal deposition; also recorded: prevents renal crystal deposition | largely prevented hyperoxaluria | – | – | – | – | – | – | – | – |
| Cc1c(CC(=O)O)c(=O)oc2c(C)c(OCc3cccc(I)c3)ccc12 [DRAinh-A270] | 39 | – | 39.3 ± 3.5 | – | – | – | – | – | for several days | did not affect stool parameters or cause diarrhea | dose-dependence in normalizing stool weight and pellet number, and water content; also recorded: normalizes stool water content even at low doses | prevents development of renal failure; also recorded: prevents weight loss, hyperoxaluria and renal failure | maintained their weight better; also recorded: prevents weight loss, hyperoxaluria and renal failure | largely prevented development of hyperoxaluria; also recorded: prevents weight loss, hyperoxaluria and renal failure | normal serum creatinine | largely prevented hyperoxaluria |
